Our source for the GI50 and TGI values is PubChem BioAssay (NCI).

Some test systems named below: OVCAR-8 ovarian; ACHN renal; DU-145 prostate; T-47D breast; LOX IMVI melanoma; HCT-116 colon; IGROV1 ovarian; SK-MEL-5 melanoma; UACC-257 melanoma; CAKI-1 renal.
What all share (test): NCI anticancer screen, dose series, 48 h

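Grown in 96-well plates, cells were treated for 48 hours with each compound at five concentrations. Insufficient inhibition: endpoint recorded as highest concentration tested. Here, GI50 denotes the concentration required for 50% inhibition of growth. TGI marks complete inhibition of growth.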

On to `Cn1c2ccccc2c2c3c(c4c5ccccc5n(CCCCCC#N)c4c21)C(=O)N(O)C3=O`, for which the GI50 with OVCAR-8 ovarian is 0.759 µM; in the test on ACHN renal, 0.317 µM; in the test with DU-145 prostate, 0.381 µM; in the test with T-47D breast, 0.419 µM; in the test with LOX IMVI melanoma, 0.167 µM; in the test with HCT-116 colon, 0.87 µM. In addition, the GI50 is 1.59 µM in the test with IGROV1 ovarian, 0.319 µM in the test with SK-MEL-5 melanoma, 1.65 µM with UACC-257 melanoma and 1.37 µM in the test on CAKI-1 renal. Further, the TGI is 10.8 µM in the test on OVCAR-8 ovarian; 1.19 µM in the test on ACHN renal; > 100 µM in the test on DU-145 prostate; 6.89 µM in the test on T-47D breast; 1.24 µM in the test with LOX IMVI melanoma; 4.14 µM in the test with HCT-116 colon. The TGI with IGROV1 ovarian was determined as 4.61 µM; with SK-MEL-5 melanoma, 1.09 µM; in the test on UACC-257 melanoma, 5.22 µM; in the test with CAKI-1 renal, 3.03 µM.
Regarding `COC(=O)c1c(-c2ccccc2)csc1NC(=O)c1c(-c2ccccc2)noc1C`, the GI50 in the test with OVCAR-8 ovarian is 0.776 µM; with ACHN renal it was 0.995 µM; with DU-145 prostate it was 1.98 µM; in the test with T-47D breast it was 3.41 µM; in the test with LOX IMVI melanoma, 0.24 µM; with HCT-116 colon, 0.379 µM. Also, the GI50 in the test on IGROV1 ovarian was 3.44 µM; in the test on SK-MEL-5 melanoma, 0.185 µM; in the test on UACC-257 melanoma, > 82.9 µM; in the test on CAKI-1 renal it was 0.745 µM. Besides, the TGI is > 100 µM in the test with OVCAR-8 ovarian; > 100 µM in the test on ACHN renal; > 100 µM with DU-145 prostate; > 100 µM in the test on T-47D breast; 3.56 µM with LOX IMVI melanoma; > 100 µM with HCT-116 colon. Moreover, the TGI with IGROV1 ovarian, in the test on SK-MEL-5 melanoma, in the test on UACC-257 melanoma and in the test with CAKI-1 renal was > 100 µM throughout.
As for `COc1ccc(C(=O)Nc2cccc(C3CC(=O)c4c(cc(OC)c(OC)c4OC)O3)c2)cc1` (configuration not stated), the GI50 in the test on OVCAR-8 ovarian is 2.79 µM; in the test on ACHN renal it was 2.57 µM; in the test with DU-145 prostate it was 2.88 µM; with T-47D breast, 2.13 µM; with LOX IMVI melanoma, 0.84 µM; in the test with HCT-116 colon, 0.381 µM. For the same molecule, the GI50 in the test on IGROV1 ovarian is 2.41 µM; in the test with SK-MEL-5 melanoma, 1.49 µM; with UACC-257 melanoma it was 11.6 µM; in the test with CAKI-1 renal it was 1.58 µM. The TGI in the test on OVCAR-8 ovarian is 20.5 µM; with ACHN renal, > 100 µM; in the test with DU-145 prostate, > 100 µM; in the test with T-47D breast, 8.1 µM; in the test with LOX IMVI melanoma, 52.4 µM; in the test on HCT-116 colon, > 100 µM. For the same molecule, the TGI is > 100 µM with IGROV1 ovarian, 4.04 µM with SK-MEL-5 melanoma, 56 µM with UACC-257 melanoma and > 100 µM with CAKI-1 renal.
Turning to `Cc1c2c(nn1-c1ccc(S/N=C3\SCC(=O)CN3c3ccccc3)cc1)-c1ccccc1CC2`, the GI50 was > 50 µM in the test on OVCAR-8 ovarian; 24.1 µM with ACHN renal; 43.9 µM in the test with DU-145 prostate; 24.7 µM in the test with T-47D breast; 5.59 µM with LOX IMVI melanoma; 6.5 µM in the test on HCT-116 colon. Besides, the GI50 with IGROV1 ovarian is 8.31 µM; in the test on SK-MEL-5 melanoma, 8.11 µM; with UACC-257 melanoma, 45.3 µM; in the test with CAKI-1 renal, 18.1 µM. In addition, the TGI is > 50 µM in the test with OVCAR-8 ovarian; > 50 µM in the test on ACHN renal; > 50 µM in the test on DU-145 prostate; > 50 µM with T-47D breast; 34.2 µM in the test with LOX IMVI melanoma; 15.9 µM in the test with HCT-116 colon. For the same molecule, the TGI was 21.4 µM with IGROV1 ovarian, 22.3 µM in the test with SK-MEL-5 melanoma, > 50 µM in the test with UACC-257 melanoma and > 50 µM with CAKI-1 renal.
For `O=C(O)/C(Cl)=C(/Cl)C(=O)Nc1cccc(Cl)c1`, the TGI with OVCAR-8 ovarian is 38.9 µM; in the test on ACHN renal, 36.8 µM; with DU-145 prostate, > 100 µM; with T-47D breast, 50.8 µM; in the test with LOX IMVI melanoma, 20.8 µM; with HCT-116 colon, 31.8 µM. The TGI amounted to 39 µM in the test on IGROV1 ovarian, 33.1 µM in the test with SK-MEL-5 melanoma, 47 µM in the test on UACC-257 melanoma and 16.3 µM in the test with CAKI-1 renal.
On to `O=C1NC(=NCc2ccccn2)S/C1=C\c1ccc2ncccc2c1`, for which the GI50 with OVCAR-8 ovarian is 14.4 µM; with ACHN renal, 10.2 µM; in the test on DU-145 prostate, 9.81 µM; in the test with T-47D breast it was 11.2 µM; in the test with LOX IMVI melanoma, 13.1 µM; in the test on HCT-116 colon it was 8.86 µM. Besides, the GI50 in the test on IGROV1 ovarian is 17.8 µM; in the test on SK-MEL-5 melanoma, 13 µM; in the test on UACC-257 melanoma, > 12.7 µM; in the test with CAKI-1 renal it was 6.62 µM. The TGI with OVCAR-8 ovarian, with ACHN renal, in the test with DU-145 prostate, with T-47D breast, with LOX IMVI melanoma and in the test with HCT-116 colon was > 25 µM throughout. In addition, the TGI with IGROV1 ovarian was > 25 µM; in the test on SK-MEL-5 melanoma, > 25 µM; with UACC-257 melanoma, > 25 µM; with CAKI-1 renal it was > 18.9 µM.
Turning to `CSC(=S)N/N=C(\C)c1ccccn1`, the GI50 in the test with OVCAR-8 ovarian is 0.203 µM; in the test with ACHN renal it was 0.232 µM; with DU-145 prostate it was 0.465 µM; with T-47D breast, < 0.01 µM; in the test on LOX IMVI melanoma, 0.206 µM; with HCT-116 colon, < 0.01 µM. The GI50 in the test with IGROV1 ovarian was 0.171 µM; with SK-MEL-5 melanoma it was 0.28 µM; with UACC-257 melanoma, 0.159 µM; in the test on CAKI-1 renal, 0.267 µM. The TGI worked out at 13.5 µM in the test on OVCAR-8 ovarian; 11.8 µM in the test on ACHN renal; 12.2 µM with DU-145 prostate; 15.2 µM in the test on T-47D breast; 12.6 µM with LOX IMVI melanoma; 5.28 µM in the test with HCT-116 colon. Moreover, the TGI in the test on IGROV1 ovarian turned out to be 17.4 µM; with SK-MEL-5 melanoma it was 1.04 µM; with UACC-257 melanoma, 1.55 µM; with CAKI-1 renal it was 7.25 µM.
In the case of `Oc1ccc2ccccc2c1/C=N\Nc1ccccn1`, the GI50 in the test on OVCAR-8 ovarian was 0.365 µM; in the test on ACHN renal it was 0.331 µM; with DU-145 prostate, 0.482 µM; in the test with T-47D breast, 0.97 µM; in the test on LOX IMVI melanoma, 0.275 µM; in the test with HCT-116 colon it was 0.318 µM. Also, the GI50 with IGROV1 ovarian was 0.273 µM; with SK-MEL-5 melanoma, 1.57 µM; with UACC-257 melanoma, 1.72 µM; in the test with CAKI-1 renal, 0.212 µM. In addition, the TGI in the test on OVCAR-8 ovarian was > 60.4 µM; with T-47D breast, > 100 µM; in the test on HCT-116 colon, > 39.2 µM; in the test with IGROV1 ovarian it was 2.05 µM; in the test on SK-MEL-5 melanoma, > 50.1 µM; with UACC-257 melanoma, > 100 µM. In the test on CAKI-1 renal, this molecule yielded a TGI of 0.678 µM.
On to `CCOc1ccc2c(c1)/C(=C\C=C\C1CC(C)C3CC(OCC)CCC3N1CC)CC(C)N2CC` (configuration not stated), for which the GI50 in the test on OVCAR-8 ovarian is 0.61 µM; in the test with ACHN renal, 1.43 µM; in the test with DU-145 prostate, 0.991 µM; in the test with T-47D breast it was 0.334 µM; in the test on LOX IMVI melanoma it was 0.871 µM; in the test on HCT-116 colon it was 0.789 µM. Further, the GI50 was 1.11 µM in the test on IGROV1 ovarian, 0.702 µM in the test on SK-MEL-5 melanoma, 0.795 µM in the test with UACC-257 melanoma and 1.65 µM with CAKI-1 renal. Moreover, the TGI in the test with OVCAR-8 ovarian worked out at 2.19 µM; in the test on ACHN renal, 2.95 µM; with DU-145 prostate it was 2.25 µM; with T-47D breast it was 2.12 µM; in the test with LOX IMVI melanoma it was 2.27 µM; in the test on HCT-116 colon it was 2.17 µM. For the same molecule, the TGI in the test with IGROV1 ovarian was 3.13 µM; with SK-MEL-5 melanoma it was 2.01 µM; in the test with UACC-257 melanoma, 2.15 µM; in the test on CAKI-1 renal it was 4.16 µM.
